One assay has as its system OVCAR-8. Nature of the assay: Cytotoxicity against human OVCAR8 cells assessed as cell viability after 72 hrs by MTT assay. It is filed as functional, cell-based. The note with it: OVCAR-8, 72 h. For orientation: Tetrazolium dyes change colour on reduction, which living cells bring about.
A further assay concerns HL-60. Put plainly: Cytotoxicity against human HL60 cells assessed as cell viability after 72 hrs by MTT assay. The conditions noted are these: HL-60, 72 h. It is filed as functional, cell-based.
The test system of another assay is DU-145. Put plainly: Cytotoxicity against human DU145 cells assessed as cell viability after 72 hrs by MTT assay. The note with it: DU-145, 72 h. It is filed as functional, cell-based.
Another assay deals with PC-3. Nature of the assay: Cytotoxicity against human PC3 cells assessed as cell viability after 72 hrs by MTT assay. In kind it is functional, cell-based. The note with it: PC-3, 72 h.
The subject of another assay is SF-295. Put plainly: Cytotoxicity against human SF295 cells assessed as cell viability after 72 hrs by MTT assay. It is filed as functional, cell-based. The note with it: SF-295, 72 h.
In a further assay the test system is MDA-MB-435. Nature of the assay: Cytotoxicity against human MDA-MB-435 cells assessed as cell viability after 72 hrs by MTT assay. In kind it is functional, cell-based. The conditions noted are these: MDA-MB-435, 72 h.
A further assay relates to MX1. Put plainly: Cytotoxicity against human MX1 cells assessed as cell viability after 72 hrs by MTT assay. It is filed as functional, cell-based. The conditions noted are these: MX1, 72 h.
In the next assay the test system is PBMC. Put plainly: Cytotoxicity against human PBMC assessed as cell viability after 72 hrs by MTT assay. In kind it is cell-based.
Another assay has as its system HCT-116. Nature of the assay: Cytotoxicity against human HCT116 cells assessed as cell viability after 72 hrs by MTT assay. In kind it is functional, cell-based. The conditions noted are these: HCT-116, 72 h.
The next assay relates to MCF7. Put plainly: Cytotoxicity against human MCF7 cells assessed as cell viability after 72 hrs by MTT assay. In kind it is functional, cell-based. The conditions noted are these: MCF7, 72 h.
The nature of assay [1]: Cytotoxicity against human HCT8 cells assessed as cell viability after 72 hrs by MTT assay. It is filed as functional, cell-based. The note with it: HCT-8, 72 h.
Assay [2] in a line: Cytotoxicity against human Hs578T cells assessed as cell viability after 72 hrs by MTT assay. The note with it: Hs-578T. In kind it is functional, cell-based.
Another assay concerns V79. Nature of the assay: Cytotoxicity against chinese hamster V79 cells assessed as cell viability after 72 hrs by MTT assay. In kind it is cell-based. The note with it: Cricetulus griseus, V79, 72 h.
A further assay deals with L929. Nature of the assay: Cytotoxicity against mouse L929 cells assessed as cell viability after 72 hrs by MTT assay. It is filed as ADME, cell-based. The conditions noted are these: L929, 72 h.

In ChEMBL document CHEMBL3112408, “1,2,3-triazole-, arylamino- and thio-substituted 1,4-naphthoquinones: potent antitumor activity, electrochemical aspects, and bioisosteric replacement of C-ring-modified lapachones” (Bioorg Med Chem, 2014) one finds IC50 data, which are given here for 15 compounds.

pIC50: −log10 of the molar value.

In general, pIC50 refers to the IC50 on a negative log10 scale, so that one unit is a factor of ten.

On to `CC1(C)OC2=C(C(=O)c3ccccc3C2=O)C1n1cc(-c2ccccc2)nn1` (stereo not given), for which the pIC50 with OVCAR-8 was 5.14; with HL-60, 5.36; in the assay on DU-145, 5.33; in the assay with PC-3, 5.24; with SF-295, 5.46; with MDA-MB-435, 5.31. For the same compound, the pIC50 in the assay with MX1 was 5.23; in the assay with PBMC, 5.10; in the assay on HCT-116, 5.08; with MCF7 it was 5.16; in assay [1], 5.04; in [2], 5.24. Besides, the pIC50 in the assay on V79 was 5.12; in the assay with L929 it was 5.08.
Take `CCCCCCc1cn(C2C3=C(OC2(C)C)C(=O)c2ccccc2C3=O)nn1` (stereo not given): the pIC50 was 5.27 in the assay on OVCAR-8; 5.72 in the assay on HL-60; 5.01 in the assay on DU-145; 4.99 in the assay on PC-3; 4.95 in the assay on SF-295; 5.40 in the assay on MDA-MB-435. In addition, the pIC50 with MX1 is 5.13; in the assay with PBMC, 5.05; with HCT-116, 5.31; in the assay with MCF7, 5.03; in [1], 5.27; in [2] it was 5.08. Further, the pIC50 with V79 was 5.14; with L929, 5.08.
Regarding `CC1(C)OC2=C(C(=O)c3ccccc3C2=O)C1n1cc(C2CCCCC2)nn1` (stereo not given), the pIC50 in the assay on OVCAR-8 was 5.27; in the assay on HL-60, 5.57; with DU-145, 5.26; with PC-3, 5.37; in the assay with SF-295, 5.50; in the assay on MDA-MB-435, 5.56. Also, the pIC50 was 5.38 in the assay with MX1; 5.13 in the assay on PBMC; 5.26 in the assay with HCT-116; 5.24 with MCF7; 5.17 in assay [1]; 5.31 in assay [2]. Further, the pIC50 was 5.21 in the assay with V79 and 5.18 in the assay on L929.
For the compound `O=C1C=C(NCc2cn(CN3C(=O)c4ccccc4C3=O)nn2)C(=O)c2ccccc21`, the pIC50 with OVCAR-8, with HL-60, in the assay with DU-145, with PC-3, in the assay with SF-295 and in the assay with MDA-MB-435 was under 4.92 throughout. The pIC50 (in the assay on MX1; with PBMC; in the assay on HCT-116; in the assay on MCF7; in assay [1]; in assay [2]) was under 4.92 each time. Moreover, the pIC50 in the assay with V79 and in the assay on L929 was under 4.92 each time.
`O=C1C=C(NCc2cn(CCN3C(=O)c4ccccc4C3=O)nn2)C(=O)c2ccccc21`: the pIC50 in the assay with OVCAR-8, with HL-60, with DU-145, with PC-3, in the assay on SF-295 and in the assay with MDA-MB-435 was under 4.96 throughout. Also, the pIC50 (with MX1; in the assay with PBMC; with HCT-116; in the assay with MCF7; in assay [1]; in assay [2]) was under 4.96 throughout. Besides, the pIC50 in the assay with V79 and in the assay on L929 was under 4.96 in each case.
For the compound `O=C1C=C(NCc2cn(CCCN3C(=O)c4ccccc4C3=O)nn2)C(=O)c2ccccc21`, the pIC50 in the assay with OVCAR-8, in the assay with HL-60, in the assay on DU-145, with PC-3, with SF-295 and with MDA-MB-435 was under 4.96 throughout. Also, the pIC50 (in the assay on MX1; in the assay on PBMC; in the assay with HCT-116; in the assay with MCF7; in assay [1]; in assay [2]) was under 4.96 throughout. For the same compound, the pIC50 with V79 and with L929 was under 4.96 throughout.
For the compound `O=C1C=C(NCc2cn(CCCCN3C(=O)c4ccccc4C3=O)nn2)C(=O)c2ccccc21`, the pIC50 with OVCAR-8, in the assay with HL-60, with DU-145, in the assay with PC-3, in the assay on SF-295 and in the assay with MDA-MB-435 was under 5.00 in each case. The negative logarithm of the IC50 (pIC50) (with MX1; with PBMC; in the assay on HCT-116; with MCF7; in [1]; in [2]) was under 5.00 throughout. Besides, the pIC50 in the assay with V79 and in the assay with L929 was under 5.00 each time.
`O=C1C(Cl)=C(NCc2cn(CN3C(=O)c4ccccc4C3=O)nn2)C(=O)c2ccccc21`: the pIC50 in the assay with OVCAR-8, with HL-60, in the assay with DU-145, in the assay on PC-3, with SF-295 and with MDA-MB-435 was under 4.96 in each case. The pIC50 (in the assay with MX1; in the assay with PBMC; in the assay on HCT-116; with MCF7; in [1]; in assay [2]) was under 4.96 in each case. Besides, the pIC50 in the assay on V79 and in the assay with L929 was under 4.96 each time.
Consider `O=C1C(Cl)=C(NCc2cn(CCN3C(=O)c4ccccc4C3=O)nn2)C(=O)c2ccccc21`, for which the pIC50 with OVCAR-8, in the assay with HL-60, in the assay with DU-145, in the assay on PC-3, in the assay with SF-295 and in the assay with MDA-MB-435 was under 5.00 throughout. Moreover, the pIC50 (with MX1; in the assay on PBMC; in the assay with HCT-116; with MCF7; in assay [1]; in [2]) was under 5.00 in each case. The pIC50 with V79 and in the assay with L929 was under 5.00 each time.
Turning to `O=C1C(Cl)=C(NCc2cn(CCCN3C(=O)c4ccccc4C3=O)nn2)C(=O)c2ccccc21`, the pIC50 in the assay on OVCAR-8, in the assay with HL-60, with DU-145, with PC-3, in the assay on SF-295 and in the assay with MDA-MB-435 was under 5.00 throughout. For the same compound, the pIC50 (with MX1; in the assay on PBMC; with HCT-116; with MCF7; in assay [1]; in assay [2]) was under 5.00 each time. Moreover, the pIC50 with V79 and with L929 was under 5.00 each time.
Consider `O=C1C(Br)=C(NCc2cn(CN3C(=O)c4ccccc4C3=O)nn2)C(=O)c2ccccc21`, for which the pIC50 in the assay on OVCAR-8, in the assay with HL-60, in the assay on DU-145, in the assay with PC-3, in the assay on SF-295 and with MDA-MB-435 was under 5.00 in each case. The negative-log IC50 (pIC50) (in the assay on MX1; with PBMC; in the assay on HCT-116; with MCF7; in assay [1]; in assay [2]) was under 5.00 each time. In addition, the pIC50 in the assay with V79 and in the assay on L929 was under 5.00 in each case.
With `O=C1C(Br)=C(NCc2cn(CCN3C(=O)c4ccccc4C3=O)nn2)C(=O)c2ccccc21`, the pIC50 with OVCAR-8, in the assay with HL-60, in the assay on DU-145, in the assay on PC-3, with SF-295 and with MDA-MB-435 was under 5.05 throughout. Also, the pIC50 (with MX1; in the assay on PBMC; in the assay on HCT-116; in the assay on MCF7; in [1]; in [2]) was under 5.05 each time. The pIC50 in the assay on V79 and with L929 was under 5.05 throughout.
With `O=C1C(Br)=C(NCc2cn(CCCN3C(=O)c4ccccc4C3=O)nn2)C(=O)c2ccccc21`, the pIC50 in the assay with OVCAR-8, with HL-60, in the assay on DU-145, with PC-3, with SF-295 and in the assay on MDA-MB-435 was under 5.05 each time. For the same compound, the pIC50 (with MX1; with PBMC; in the assay on HCT-116; with MCF7; in assay [1]; in assay [2]) was under 5.05 each time. The pIC50 with V79 and in the assay on L929 was under 5.05 each time.
Regarding `O=C1C=C(NCc2cn(-c3cccc([N+](=O)[O-])c3)nn2)C(=O)c2ccccc21`, the pIC50 with OVCAR-8, with HL-60, in the assay with DU-145, with PC-3, with SF-295 and with MDA-MB-435 was under 4.89 in each case. The pIC50 (with MX1; in the assay with PBMC; in the assay on HCT-116; in the assay on MCF7; in [1]; in assay [2]) was under 4.89 in each case. Further, the pIC50 in the assay on V79 and in the assay on L929 was under 4.89 each time.
Turning to `O=C1C(Cl)=C(NCc2cn(CCCCN3C(=O)c4ccccc4C3=O)nn2)C(=O)c2ccccc21`, the pIC50 in the assay on OVCAR-8, in the assay on HL-60, in the assay on DU-145, with PC-3, in the assay on SF-295 and with MDA-MB-435 was under 5.00 throughout. The pIC50 (in the assay with MX1; with PBMC; in the assay with HCT-116; with MCF7; in assay [1]; in assay [2]) was under 5.00 each time. The pIC50 in the assay on V79 and in the assay on L929 was under 5.00 throughout.
